Where no end group is shown, it is not given here.

One experiment addresses hMOPr (Homo sapiens, UniProt P35372). The experiment in a line: Competitive radio binding assay with [3H]-DAMGO on hMOPr-CHO cell membranes. Conditions: read-out: Ki hMOPr; [3H]-DAMGO 1 nM, 60 min 25°C; mean ± SEM.
For another experiment, the target named is hDOPr (Homo sapiens, UniProt P41143). The experiment in a line: [35S]GTPγS functional assay on hDOPr-CHO cell membranes. It counts as biochemical. Conditions: Table 3, mean ± SEM; for hDOPr % stim, stimulation of [35S]GTPγS binding: normalized to DynA; for EC50: read-out: hDOPr EC50, stimulation of [35S]GTPγS binding. How it is done: CHO cells stably transfected with human KOPr, MOPr, and DOPr (hKOPr-CHO, hMOPr-CHO, and hDOPr-CHO, respectively) were provided by Prof. Liu-Chen (Temple University, Philadelphia, United States). The cells were grown in Gibco™ Dulbecco’s minimal essential medium (DMEM) for hKOPr-CHO or Gibco™ DMEM/F-12 for hMOPr and hDOPr. Both media were supplemented with 10% FBS (Gibco™), GlutaMAX (100 μg/mL; Gibco™), penicillin/streptomycin (100 μg/mL; Gibco™), and geneticin (G418, 400 μg/mL; Gibco™). HEK 293 cells were grown in high-glucose DMEM supplemented with 10% FBS (Gibco™), GlutaMAX (100 μg/mL; Gibco™), and penicillin/streptomycin (100 μg/mL; Gibco™). Cell cultures were maintained in a Heracell™ 150i CO2 incubator at 37°C and 5.0% CO2.
Chain of hDOPr (P41143 whole entry): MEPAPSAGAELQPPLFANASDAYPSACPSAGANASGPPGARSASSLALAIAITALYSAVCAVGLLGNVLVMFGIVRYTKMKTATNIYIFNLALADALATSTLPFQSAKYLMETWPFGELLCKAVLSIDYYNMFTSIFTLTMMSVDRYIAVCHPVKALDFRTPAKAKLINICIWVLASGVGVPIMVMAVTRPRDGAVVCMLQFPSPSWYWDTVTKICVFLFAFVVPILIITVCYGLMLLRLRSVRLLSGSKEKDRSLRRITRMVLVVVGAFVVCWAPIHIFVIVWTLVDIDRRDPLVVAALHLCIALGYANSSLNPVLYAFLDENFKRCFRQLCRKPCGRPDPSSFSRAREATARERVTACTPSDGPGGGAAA
Functional assays were conducted on hKOPr-CHO, hMOPr-CHO, and hDOPr-CHO cell membranes (see above). The membranes were prepared in a buffer containing 20 mM HEPES, 10 μM GDP, cell membrane (10–30 μg), and 0.05 nM [^35S]GTPγS. The buffer containing the cell membranes was incubated with an increasing concentration of the test peptide diluted in 1 × HEPES, pH 7.4, in a total volume of 1 mL, for 60 min at 25°C. The peptide solutions were replaced by diluents for untreated controls. Non-specific binding was determined using unlabeled 10 μM GTPγS. Samples were rapidly washed three times with Tris-HCl and filtered through glass fiber filters (GF/B Whatman). The bound radioactivity was measured by liquid scintillation (Carl Roth GmbH, Karlsruhe, Germany) counting on a Packard 1600 TR Tri-Carb Beta counter (Canberra, Belgium).
Background: Binding of GTPγS marks nucleotide exchange on a G protein.

Experiment [1] addresses T1, hKOPr (Homo sapiens, UniProt P41145). The experiment in a line: cell-based. It counts as cell-based. Conditions: for Emax: HEK293, read-out: β-Arrestin recruitment, efficacy at hKOPr Emax; for EC50: read-out: β-Arrestin recruitment, potency at hKOPr EC50. Background: Arrestin recruitment assays detect the binding of arrestin to an activated receptor.
Experiment [2] deals with T1, hKOPr. It counts as binding. Conditions: for Ki: read-out: Ki hKOPr.
The subject of experiment [3] is hKOPr. The experiment in a line: Biased factor calculation from GTPγS and PRESTO-Tango data. Conditions: G-protein vs β-arrestin, DynA as reference; below 1 = β-arrestin bias. Also on record: species or system human. An excerpt: To perform biased factor analyses, we followed the step-by-step protocol described by [Nagi and Pineyro (2016)]. In short, curve fitting was used to calculate τ and Ka values for G-protein and β-arrestin pathway activation. Log(τ/Ka) ratios were subtracted by log(τ/Ka) of DynA as the reference to yield ΔLog(τ/Ka) values for each peptide. In a final step for each peptide, ΔLog (τ/Ka) values for G-protein pathway activation were subtracted from ΔLog(τ/Ka) values for β-arrestin pathway activation and vice versa to calculate ΔΔLog(τ/Ka). The biased factor is yielded by delogging ΔΔLog (τ/Ka).
To confidently identify a G-protein-biased peptide of interest, it is essential to keep in mind that the responses we collected through GTPγS and PRESTO-Tango assay are not solely determined by drug signaling properties but also by the way the cell and different assays “perceive” the generation of this response. These different “perceptions” of the pharmacological stimulus may themselves be responsible for an imbalance among signals from different pathways. To avoid this, and to be able to correctly estimate whether a peptide is indeed biased, we applied the method proposed by [Kenakin et al. (2012)], that is based on the operational method proposed by [Black and Leff (1983)]. This method takes into consideration receptor occupation by the agonist, communication of the pharmacological stimulus to the system, and the processing of the stimulus by the system that produces the response.

T1 sequence (P41145 whole entry): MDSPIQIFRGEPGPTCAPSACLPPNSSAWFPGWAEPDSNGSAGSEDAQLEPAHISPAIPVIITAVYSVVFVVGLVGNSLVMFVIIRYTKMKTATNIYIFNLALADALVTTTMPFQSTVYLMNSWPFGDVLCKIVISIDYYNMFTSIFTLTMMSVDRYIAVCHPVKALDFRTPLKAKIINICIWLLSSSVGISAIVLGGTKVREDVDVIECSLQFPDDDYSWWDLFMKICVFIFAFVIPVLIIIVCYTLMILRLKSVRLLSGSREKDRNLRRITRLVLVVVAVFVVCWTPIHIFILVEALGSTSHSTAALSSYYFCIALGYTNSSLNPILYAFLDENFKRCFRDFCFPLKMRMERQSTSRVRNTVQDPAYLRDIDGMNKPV
Chain of hMOPr (P35372 whole entry): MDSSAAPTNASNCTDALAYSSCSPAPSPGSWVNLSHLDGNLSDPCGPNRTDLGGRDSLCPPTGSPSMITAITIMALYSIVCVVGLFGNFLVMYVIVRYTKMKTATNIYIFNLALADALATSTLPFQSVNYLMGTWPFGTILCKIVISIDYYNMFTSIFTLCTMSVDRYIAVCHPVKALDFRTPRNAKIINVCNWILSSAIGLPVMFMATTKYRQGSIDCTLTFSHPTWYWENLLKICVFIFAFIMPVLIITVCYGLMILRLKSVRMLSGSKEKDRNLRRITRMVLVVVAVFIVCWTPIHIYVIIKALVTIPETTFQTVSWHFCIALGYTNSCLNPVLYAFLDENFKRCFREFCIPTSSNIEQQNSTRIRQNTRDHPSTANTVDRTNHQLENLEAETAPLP

Regarding YGGFSRRQFKVVT [DynB_L5S], on hMOPr, the inhibitory constant (Ki) came out at 18.6 ± 1.3 nM. On hDOPr, the “hDOPr % stim, stimulation of [35S]GTPγS binding” value is given as 86.7 ± 9.2% and the concentration giving a half-maximal response (EC50) turned out to be 310 ± 50.4 nM. Moreover, at hKOPr [1], the “potency for β-arrestin recruitment compared to DynB_WT” value was “significantly lower potency”, the Emax came to 95.1 ± 7.7% and the EC50 is 146 ± 26.5 nM. Moreover, on hKOPr [2], the “Selectivity DOPr/KOPr” value is 4,153, the “Selectivity MOPr/KOPr” value is listed as 135 and the Ki stood at 0.14 nM. For the same sequence, the “biased factor at hKOPr” value in the experiment on hKOPr [3] was 0.7 ± 0.2.

As for YGAFLRRAFKVVT [DynB_G3A/Q8A], at hMOPr, the Ki is 86.1 ± 7 nM. Further, at hDOPr, the “hDOPr % stim, stimulation of [35S]GTPγS binding” value is 86.4 ± 10.3% and the EC50 amounted to 1230 nM. At hKOPr [1], the “stimulation of the receptor (β-arrestin recruitment) in comparison to DynB_WT” value was “lower stimulation”, the maximal effect (Emax) was found to be 88.7 ± 2.6% and the half-maximal effective concentration (EC50) is 66.1 ± 1.6 nM. For the same sequence, on hKOPr [2], the “Selectivity DOPr/KOPr” value came out at 778, the “Selectivity MOPr/KOPr” value worked out at 161 and the Ki is 0.54 nM. In addition, in the experiment on hKOPr [3], the “biased factor at hKOPr” value is given as 0.6 ± 0.2.

The Ki is the dissociation constant of the complex between target and ligand, obtained from inhibition or displacement. Broadly, the EC50 is the concentration giving half of the maximal effect. What is called Emax is the maximal effect, on the per cent scale that the assay sets.
